Measured values reported in paper PMC5282547, “The Proline/Arginine Dipeptide from Hexanucleotide Repeat Expanded C9ORF72 Inhibits the Proteasome” (eNeuro, 2017).
Read-outs that look alike come from different tables or passages of the source. Where no end group is shown, it is not given here.

How the values were obtained:
[1] = test system: phosphorylated S6K and 4EBP1; assay: Immunoblot for mTOR pathway activation; format: cell-based, rat; details: 2 µM, 48 h, immunoblot normalized to actin
Procedure: All plates were incubated with PR20 for 48 h.
Once scanning of the nitrocellulose membranes probed for 4EBP1/P-4EBP1 and S6K/P-S6K had been completed, Restore Western Blot Stripping Buffer (Thermo Fisher Scientific) was used to strip the blot of antibodies. The membranes were washed twice in PBS-T for 10 min each and then placed in the stripping buffer for 22 min. The membranes were then washed twice once again in PBS-T for 10 min. They were then placed in blocking solution (5% w/v milk in PBS-T) for 45 min.

Dendra2-LC3 = assay: Autophagic flux assay, optical pulse labeling of Dendra2-LC3; format: cell-based, rat; details: 2 µM peptide, primary spinal neurons, single-cell optical pulse labeling
Procedure: Primary spinal neurons were dissected from E15 rat pups and cultured at a density of 2.5 × 10^5 cells/ml on a laminin/poly-lysine-coated 96-well plate in motor neuron media. Four days after plating, neurons were transfected with Lipofectamine 2000 (Invitrogen). DNA-Lipofectamine mixtures were incubated with neurons for 20 min followed by rinsing. Neurons were then placed in 100 µL of conditioned media that was collected immediately prior to transfection and half fresh motor neuron media containing 4 µM PR20, resulting in a final concentration of 2 µM PR20.
Optical pulse labeling experiments were performed using an automated microscopy platform previously described by [Arrasate et al. (2004)] and [Barmada et al. (2014)]. A Nikon Eclipse Ti inverted microscope equipped with a PerfectFocus system, 20× objective lens and an Andor iXon3 897 EMCCD camera were used to acquire images. Samples were illuminated with a Sutter Instruments Lamba XL lamp. The microscope and related components were encased in custom-built plexiglass enclosure set to maintain the temperature at 37°C and CO2 at 5%. Semrock GFP and TRITC filters were used for excitation and detection. A Semrock 405-nm long-pass filter was used for photoactivation. Image acquisition and stage movements were accomplished in an automated fashion using µManager and original code written in BeanShell. For all experiments, photoconversion occurred 24 h following transfection. GFP and TRITC images were acquired immediately following activation and subsequently every 2 h for 12 h. Images were acquired in a similar 12-h window starting 48 h after PR20 treatment. Using in-house image analysis scripts, neuronal cell bodies were identified based on their fluorescent intensity and morphology, and a ROI was drawn around the perimeter of each cell at each time. Single-cell TRITC intensity values were recorded and used to fit a first order exponential decay curve for individual neurons and calculate a Dendra2-light chain 3 (LC3) half-life for each cell. […]

[2] = test system: ubiquitin-proteasome system; assay: MG-132 flux assay (flux of ubiquitylated substrates through the UPS); format: cell-based, rat
Procedure: MG-132 (Sigma) was used to inhibit proteasomal function. Cells were initially treated with PR20 for a total of 48 h using the method outlined in PR20 treatment for biochemical assays. Four hours prior to lysis, these cells were treated with MG-132 or vehicle. The MG-132 was kept in a stock solution in DMSO. This was added directly to culture to achieve a final concentration of 5 μM. Cells were then lysed in RIPA buffer and immunoblotted for ubiquitin.
(§1) Ubiquitin analysis requires the use of deubiquitinase (DUB) inhibitors. Lysis without these inhibitors runs the risk of degradation of the substrates to be targeted. As such, N-ethylmaleimide (Sigma), a potent DUB inhibitor, was used in the lysis buffer. […] The remainder of the lysis procedure follows Cell lysis.
To test for group differences in the flux assay, a permutation test was used. This is a nonparametric statistical test that was implemented in MATLAB. […] The test first quantifies this by taking the average of each experimental group and then finding the difference of ratios. It then permutes two samples located in two groups randomly, and determines that difference between averages again. This is repeated 50,000 times, and a histogram is plotted. This histogram represents the distribution of random noise in the sample. Since a higher difference in the +MG132/−MG132 ratio is a more “significant” result, the percentage of the random noise produced from 50,000 permutations that is higher in magnitude than the true difference (calculated from un-permuted data) is the p value.
Permutations of a data point in a +MG132 into a group labeled −MG132 (or vice versa) were not allowed. […] Thus, this group difference was not interesting to us.

[3] = test system: U2OS cells and human astrocytes; details: depending on the specific assay; ref Kwon et al., 2014; cited from earlier work
Description: The difficulty of distinguishing between toxic HRE mRNA and DPR proteins has impeded our understanding of the mechanism underlying C9ORF72 HRE pathophysiology. As reported in Science ([Kwon et al., 2014]), the McKnight lab devised a strategy to overcome this problem: they studied U2OS cells and human astrocytes directly exposed to synthetic DPR proteins. […] We built upon this approa ...

[4] = test system: purified affinity-purified human proteasomes; format: biochemical; details: for Δ0–5 of Ub-Sic1 signal compared with the no PR20 group: 20 nM Ub-Sic1, n = 3, p < 0.05
Procedure: Polyubiquitylated Sic1 proteins with PY degron motifs and T7 tag (Ub-Sic1) was prepared as previously described by [Choi et al. (2016)]. Different concentrations of PR20 peptides (0, 50, or 500 nM) and purified affinity-purified human proteasomes (5 nM) were preincubated 20 min in proteasome assay buffer [50 mM Tris-HCl (pH 7.5), 100 mM NaCl, 10% glycerol, 2 mM ATP, 10 mM MgCl2, and 1 mM DTT] on ice, and 20 nM reconstituted Ub-Sic1 was subsequently added. Degradation of Ub-Sic1 and PR20 peptides was monitored by immunoblotting using anti-T7 and anti-HA antibodies, respectively. Band intensities were quantified using ImageJ software (version 1.48k, NIH) from three independent immunoblotting assays (n = 3).

[5] = test system: total ubiquitylated protein; assay: Ubiquitylation assay (total cellular ubiquitin immunoblot); format: cell-based, rat; details: 2 µM, 2, 4, 8, 16 h; significant at 2, 8 and 16 h
Procedure: The ubiquitylation assay involved acute time point treatments with PR20. 16 h prior to scheduled lysis, two dishes were treated to a final concentration of 2 μM PR20 using the methods described in the PR20 treatment for biochemical assays subsection. This was repeated 8 h prior to lysis, 4 h prior to lysis, and 2 h prior to lysis. Samples were then lysed in RIPA buffer as described in Cell lysis for ubiquitin blots and processed for Western blot analysis.
as §1

PRPRPRPRPRPRPRPRPRPRPRPRPRPRPRPRPRPRPRPRYPYDVPDYA [PR20]
activation level of the mTOR pathway versus vehicle [1]: no statistically significant differences | extension of Dendra2-LC3 half-life compared with control (Dendra2-LC3): ~5.6 h | proteasomal flux versus vehicle after 2 h of exposure ([2]; 2 h PR20, ±MG132, n = 6 per group, p = 0.38): no statistically significance | proteasomal flux (difference in ubiquitin +/- MG-132) versus vehicle ([2]; peptide 48 h (PR20 2 µM), then MG-132 5 µM or vehicle 4 h, permutation test): reduced | toxic concentration range [3]: 10 to 30 µM | degradation of the peptide by purified 26S proteasomes ([4]; 0, 5 and 15 min, anti-HA immunoblot, pH 7.5 assay buffer with ATP): not itself degraded | Δ0–5 of Ub-Sic1 signal compared with the no PR20 group ([4]; 1:10 proteasomes:PR20 (5 nM proteasomes, 50 nM PR20)): statistically significant less | Δ0–15 of Ub-Sic1 signal compared with the no PR20 group ([4]; 1:10 proteasomes:PR20, n = 3, p < 0.05): statistically significantly less | Δ0–5 of Ub-Sic1 signal compared with the no PR20 group ([4]; 1:100 proteasomes:PR20 (5 nM proteasomes, 500 nM PR20)): statistically significant less | Δ0–15 of Ub-Sic1 signal compared with the no PR20 group ([4]; 1:100 proteasomes:PR20, n = 3, p < 0.05): statistically significantly less | total ubiquitylated protein levels over time [5]: progressive increase
